Entries after “also recorded” stand apart in the source; their conditions may differ.
Tests used:
[1] = biological target: T1, human neurokinin-1 receptor (Homo sapiens, UniProt P25103); assay: Neurokinin-1 (NK1) receptor binding inhibitory action, [3H](Sar9, Met11(O2)) Substance P on IM-9 cells
T1 construct: Human lymphoblastoma IM-9 cells (5 10^6 cell/tube) were reacted with 0.3 nM; endogenous in cells; host or cells: human lymphoblastoma IM-9 cells
Excerpt: Measurements on the crystalline form of the present invention can be carried out, for example, according to the method described in European Journal of Pharmacology, vol. 254, pages 221-227 (1994) with respect to a neurokinin-1 receptor binding action, and according to the method described in European Journal of Pharmacology, vol. 265, pages 179-183 (1994) with respect to an action against a neurokinin-1 receptor […] inducing action, further according to the method described in Journal of Urology, vol.
Device: Dynamic Vapor Sorption device DVS-1 manufactured by Surface Measurement Systems, UK Amount of specimen: 10 mg Measured temperature: 25° C. Relative humidity range: 0 to 90% Experimental example 1 Neurokinin-1 (NK1) receptor binding inhibitory action Human lymphoblastoma IM-9 cells (5 10^6 cell/tube) were reacted with 0.3 nM [^3H] (Sar^9, Met^11 (O2)) Substance P and the prepared Type II crystalline form of (2R,4S)-1-{N-(3,5-bistrifluoromethylbenzyl)-N-methyl}aminocarbonyl-2-(4-fluoro-2-methylphenyl)-4-(2-hydroxyethylaminocarboxyloxy)-piperidine in 0.5 ml of 50 mM Tris-HCl (pH 7.4, 25° C.) containing 150 mM NaCl, 3 mM MnCl2, 40 μg/ml bacitracin, 4 μg/ml Leupeptin, 4 μg/ml Chymostatin, 4 μg/ml Phosphoramidon and 0.02% bovine serum albumin at room temperature for 60 minutes according to the method described in European Journal of Pharmacology, vol. 254, pp. 221-227 (1994). The reaction mixture was subjected to suction filtration with a GF/C glass filter which had previously been treated with 0.3% polyethyleneimine, washed with 0.3 ml of ice-cold reaction buffer containing no bovine serum albumin and various kinds of protein decomposition enzyme inhibitors twice, and radioactivity (dpm) on the filter was measured by a liquid scintillation counter. A specific binding amount was obtained by subtracting non-specific binding amount (L-703606 (10 μM) having NK1 receptor antagonistic action) from a total binding amount.

[2] = Hygroscopicity by Dynamic Vapor Sorption; format: physicochemical; conditions: DVS-1, 25° C., relative humidity range 0 to 90%, 10 mg
Protocol: With regard to Type I and Type II crystalline forms of (2R,4S)-1-{N-(3,5-bistrifluoromethylbenzyl)-N-methyl}-aminocarbonyl-2-(4-fluoro-2-methylphenyl)-4-(2-hydroxy-ethylaminocarboxyloxy)piperidine, hygroscopicity was measured according to the following mentioned conditions.
Device: Dynamic Vapor Sorption device DVS-1 manufactured by Surface Measurement Systems, UK Amount of specimen: 10 mg Measured temperature: 25° C. Relative humidity range: 0 to 90% Experimental example 1 Neurokinin-1 (NK1) receptor binding inhibitory action Human lymphoblastoma IM-9 cells (5 10^6 cell/tube) were reacted with 0.3 nM [^3H] […] The reaction mixture was subjected to suction filtration with a GF/C glass filter which had previously been treated with 0.3% polyethyleneimine, washed with 0.3 ml of ice-cold reaction buffer containing no bovine serum albumin and various kinds of protein decomposition enzyme inhibitors twice, and radioactivity (dpm) on the filter was measured by a liquid scintillation counter. […]

[3] = Stability at 40° C./75% RH in a glass bottle with an open state for 4 weeks; format: physicochemical
Protocol: Stabilities of crystalline forms of Type I, Type II and Type VII, and amorphous of (2R,4S)-1-{N-(3,5-bistri-fluoromethylbenzyl)-N-methyl}aminocarbonyl-2-(4-fluoro-2-methylphenyl)-4-(2-hydroxyethylaminocarboxyloxy)piperidine were observed under the conditions of at 40° C./75% RH in a glass bottle with an open state for 4 weeks. […] Accordingly, improvement in stability according to crystallization could be confirmed.

T1 sequence (P25103 whole entry): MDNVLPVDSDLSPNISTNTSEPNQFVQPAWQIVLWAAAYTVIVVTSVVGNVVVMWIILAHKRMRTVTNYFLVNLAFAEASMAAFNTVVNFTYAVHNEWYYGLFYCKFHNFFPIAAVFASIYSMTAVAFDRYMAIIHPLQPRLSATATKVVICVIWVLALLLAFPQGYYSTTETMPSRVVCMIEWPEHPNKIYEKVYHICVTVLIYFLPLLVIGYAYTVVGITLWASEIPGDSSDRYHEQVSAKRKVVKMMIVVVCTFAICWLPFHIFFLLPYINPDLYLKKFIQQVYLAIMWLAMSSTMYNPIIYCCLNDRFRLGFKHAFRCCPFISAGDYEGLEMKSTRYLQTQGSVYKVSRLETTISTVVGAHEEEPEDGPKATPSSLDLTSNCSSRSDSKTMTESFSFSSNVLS

Structure (SMILES) | IC50 ([1]; Human lymphoblastoma IM-9 cells, 0.3 nM [3H](Sar9, Met11(O2)) Substance P, room temperature 60 minutes, read-out: IC50 value, NK1 receptor binding inhibition) | Ki ([1]; Human lymphoblastoma IM-9 cells, 0.3 nM [3H](Sar9, Met11(O2)) Substance P, room temperature 60 minutes, read-out: Ki value, NK1 receptor binding inhibition) | neurokinin-1 receptor binding action (in words) ([1]; human NK1 receptor, IM-9 cells) | hygroscopicity (change in weight under high humidity conditions) [2] | change in appearance [3] | moisture absorption [3]
Cc1cc(F)ccc1[C@H]1C[C@@H](OC(=O)NCCO)CCN1C(=O)N(C)Cc1cc(C(F)(F)F)cc(C(F)(F)F)c1 [Type II, (2R,4S)-1-{N-(3,5-bistrifluoromethylbenzyl)-N-methyl}aminocarbonyl-2-(4-fluoro-2-methylphenyl)-4-(2-hydroxyethylaminocarbonyloxy)piperidine] | 4.59 nM | 2.22 nM | inhibited said Substance P with concentration-dependently; also recorded: showed a human neurokinin-1 receptor binding action with concentration-dependently | no hygroscopicity | no change in appearance | 
Cc1cc(F)ccc1[C@H]1C[C@@H](OC(=O)NCCO)CCN1C(=O)N(C)Cc1cc(C(F)(F)F)cc(C(F)(F)F)c1 [amorphous, (2R,4S)-1-{N-(3,5-bistrifluoromethylbenzyl)-N-methyl}aminocarbonyl-2-(4-fluoro-2-methylphenyl)-4-(2-hydroxyethylaminocarbonyloxy)piperidine] |  |  |  |  | marked change in appearance (white powder→white lump) | moisture absorption was admitted
Cc1cc(F)ccc1[C@H]1C[C@@H](OC(=O)NCCO)CCN1C(=O)N(C)Cc1cc(C(F)(F)F)cc(C(F)(F)F)c1 [Type I, (2R,4S)-1-{N-(3,5-bistrifluoromethylbenzyl)-N-methyl}aminocarbonyl-2-(4-fluoro-2-methylphenyl)-4-(2-hydroxyethylaminocarbonyloxy)piperidine] |  |  |  | no hygroscopicity | no change in appearance | 
Cc1cc(F)ccc1[C@H]1C[C@@H](OC(=O)NCCO)CCN1C(=O)N(C)Cc1cc(C(F)(F)F)cc(C(F)(F)F)c1 [Type VII, (2R,4S)-1-{N-(3,5-bistrifluoromethylbenzyl)-N-methyl}aminocarbonyl-2-(4-fluoro-2-methylphenyl)-4-(2-hydroxyethylaminocarbonyloxy)piperidine] |  |  |  |  | no change in appearance | 

Source: patent publication US20100305159A1, “CRYSTALLINE FORM OF PIPERIDINE COMPOUND” (MITSUBISHI TANABE PHARMA CORPORATION, priority 2007, published 2010)
